Calls of active or inactive are those of the source. No rule for the calls is given here.
Target: Bcl-2-related protein A1 (Mus musculus) (UniProt Q07440)
Assay: Bfl-1 binding inhibition by analogs, SAR follow-up, counter-screen for UBC13 polyubiquitination inhibitor project, biochemical, mouse Bfl-1, set 3 (AID 602206)
Conditions: Bfl-1 / peptide binding counterscreen, TR-FRET

Sequence of Bcl-2-related protein A1 (Mus musculus) (Q07440 whole entry, looked up): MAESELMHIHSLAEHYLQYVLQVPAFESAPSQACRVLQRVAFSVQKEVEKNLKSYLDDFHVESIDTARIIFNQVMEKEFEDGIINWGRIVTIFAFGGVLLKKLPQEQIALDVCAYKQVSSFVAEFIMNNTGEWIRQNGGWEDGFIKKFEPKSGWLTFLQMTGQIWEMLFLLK

O=C(CCCCCN1C(=O)c2ccccc2C1=O)NCCc1ccccc1
IC50: > 100 µM (inactive)

Cc1ccc(NC(=O)C2CCN(c3ncnc4c3nc3n4CCCCC3)CC2)cc1F
IC50: > 100 µM (inactive)

COc1cc(OC)c(NC(=O)C2CCN(c3ncnc4c3nc3n4CCCCC3)CC2)cc1Cl
IC50: > 100 µM (inactive)

COc1cc(Cl)c(C)cc1NC(=O)C1CCN(c2ncnc3c2nc2n3CCCCC2)CC1
IC50: > 100 µM (inactive)

Cc1ccc(NC(=O)C2CCN(c3ncnc4c3nc3n4CCCCC3)CC2)c(Cl)c1
IC50: > 100 µM (inactive)

Cc1ccc(Cl)cc1N1CCN(c2ncnc3c2nc2n3CCCC2)CC1
IC50: > 100 µM (inactive)

c1ccc(CN2CCN(c3ncnc4c3nc3n4CCCC3)CC2)cc1
IC50: > 100 µM (inactive)

O=C(Nc1ccc(CN2CCCCC2)cc1)C1CCN(c2ncnc3c2nc2n3CCCCC2)CC1
IC50: > 100 µM (inactive)

O=C(Nc1cccc(Cl)c1)C1CCN(c2ncnc3c2nc2n3CCCCC2)CC1
IC50: > 100 µM (inactive)

COc1ccc(NC(=O)C2CCN(c3ncnc4c3nc3n4CCCCC3)CC2)cc1Cl
IC50: > 100 µM (inactive)

c1nc(N2CCC(N3CCCCC3)CC2)c2nc3n(c2n1)CCCC3
IC50: > 100 µM (inactive)

CC1CN(S(=O)(=O)c2ccc(NC(=O)CCCCCN3C(=O)c4ccccc4C3=O)cc2)CC(C)O1 (centres undefined)
IC50: > 100 µM (inactive)

Cc1ccc(NC(=O)C2CCN(c3ncnc4c3nc3n4CCCCC3)CC2)cc1C
IC50: > 100 µM (inactive)

Cc1c(Cl)cccc1NC(=O)C1CCN(c2ncnc3c2nc2n3CCCCC2)CC1
IC50: > 100 µM (inactive)

CCOc1ccc(CCNC(=O)CCCCCN2C(=O)c3ccccc3C2=O)cc1OCC
IC50: > 100 µM (inactive)

Fc1ccccc1N1CCN(c2ncnc3c2nc2n3CCCC2)CC1
IC50: > 100 µM (inactive)

Cc1cc(Cl)ccc1NC(=O)C1CCN(c2ncnc3c2nc2n3CCCCC2)CC1
IC50: > 100 µM (inactive)

O=C(Nc1cc(F)ccc1F)C1CCN(c2ncnc3c2nc2n3CCCCC2)CC1
IC50: > 100 µM (inactive)

COc1ccc(Cl)cc1NC(=O)C1CCN(c2ncnc3c2nc2n3CCCCC2)CC1
IC50: > 100 µM (inactive)
